According to patent US20150031760A1, “PHARMACEUTICAL COMPOSITION FOR PREVENTING OR TREATING NERVOUS SYSTEM DISORDERS COMPRISING SULFURETIN OR PHARMACEUTICALLY ACCEPTABLE SALT THEREOF” (Research and Business Foundation SUNGKYUNKWAN UNIVERSITY, priority 2010, published 2015):

Tests used:
SH-SY5Y cells [1] = assay: MTT assay, amyloid beta25-35-induced cell death; assay type: cell-based, human; conditions: pretreated with sulfuretin at 2.5, 5, 10 and 20 μM for 30 minutes, then 20 μM amyloid beta25-35 for 24 hours (p<0.05 and p<0.001)
Description: For the experiments shown in FIGS. 11 to 13, SH-SY5Y and stable swedish APP mutant SH-SY5Y cells were grown in DMEM supplemented with 10% heat-inactivated FBS and 0.1% penicillin/streptomycin at 37° C. in a humidified atmosphere of 5% CO2 and 95% air. Cells were fed every three days and sub-cultured once they reached 80-90% confluency in […] cell culture dishes. Amyloid beta25-35 was prepared as a 20 mM stock immediately before use and diluted in PBS to the indicated final concentration. Prior to use, amyloid beta25-35 was dissolved in sterilized distilled water and was aggregated at 37° C. for five days. The test compounds were dissolved in DMSO and the stock solutions were added directly to the culture media to a final concentration of 0.1% (v/v) DMSO.
First of all, MTT assay was performed to determine the neuroprotective effects of sulfuretin on amyloid beta25-35-induced cell death. […] The dark-blue formazan crystals formed in intact cells were dissolved in DMSO, and the absorbance at 540 nm was measured with a microplate reader (SpectraMax 250, Molecular Device, Sunnyvale, Calif., USA). The results were expressed as the percentage of MIT reduction relative to the absorbance of control cells.

SH-SY5Y cells [2] = assay: Inhibition of mitochondrial membrane potential (MMP) damage (rhodamine-123); assay type: cell-based, human; conditions: hydrogen peroxide-induced damage, 30 minutes pretreatment
Description: (§1) The incubator was maintained at a temperature of 37° C., and a mixed gas of 95% air and 5% CO2 was continuously supplied thereto to provide suitable conditions for cell culture. The cells were cultured in a 6-well plate or a 96-well plate at each of densities of 1×10^6 and 2×10^4 cells/well 24 hours before the experiment. […] Sulfuretin was used in ethanol and used at a final concentration of 0.1% or less.
In order to measure the inhibition of MMP damage, cells were labeled with rhodamine-123 fluorescence, and quantitative analysis was performed using a fluorescence meter. Specifically, the 6-well plate in which the cells have been cultured was pretreated with sulfuretin for 30 minutes and then reacted with hydrogen peroxide for 30 minutes to induce MMP damage. Then, 10 μl of 10 μM rhodamine-123 was added to each well of the plate and allowed to react for 30 minutes. Herein, rhodamine-123 in the incubator was covered with a silver foil such that it would not be exposed to light. The cells that reacted with the rhodamine-123 fluorescent substance were detached with cold PBS and centrifuged at 400 g for 3 minutes. The centrifugation process was repeated twice to wash the fluorescent substance. The washed cells were stirred briefly with 0.5 ml of PBS, and 100 μl was dispensed into each well of a fresh 96-well plate. The fluorescence of the cells was measured at an excitation wavelength of 480 nm and an emission wavelength of 530 nm using a fluorescence meter (Perkinelmer, USA).
The measured fluorescence was substituted into the following equation to calculate ΔΨm:
ΔΨm(%)=[(O.D. of control−O.D. of test group)/O.D. of control]×100

phospho-JNK = assay: Western blot, phospho-JNK expression; assay type: cell-based, human; conditions: SH-SY5Y cells
Description: as §1
In order to identify the effect of sulfuretin on the expression of proteins related to dementia, Alzheimer's disease, Parkinson's disease and strokes, a Western blot test was carried out.
After 24 hours, the supernatant of each well was collected and centrifuged at 400 g for 3 minutes, and the cells were washed with cold PBS and lysed with 100 μl of T-PER lysis buffer (Thermo, USA) for 30 minutes. The lysates were centrifuged at 10000 g at 4° C. for 15 minutes, and the supernatants were stored at […] until use as test samples. Proteins were quantitatively analyzed using a BCA assay kit (Thermo, USA) and separated within 8.5-12% SDS gel and then transferred to PVDF membranes. To examine the expression of the proteins, the development of fluorescence was analyzed by enhanced chemiluminescence (ECL). Specifically, the membrane was blocked with 5% skimmed non-fat milk for 1 hour and labeled with the primary antibodies, PARP, caspase-3, phospho-p38, phospho-JNK and β-actin at 4° C. overnight. Then, the membrane was washed three times with Tris-tween buffered saline (TTBS), and then labeled with horseradish peroxidase (HRP)-conjugated anti-rabbit and anti-mouse secondary antibodies at room temperature for 1 hour. Then, the membrane was washed five times with TTBS for 10 minutes. The washed film was developed by ECL using x-ray films, and concentrations were quantitatively analyzed using quantitative analysis program (Fujifilm, Japan).

mice = assay: Scopolamine-induced learning and memory deficits, step-through passive avoidance test; assay type: in vivo
Description: Male ICR mice (4-weeks-old, 18-20 g) were purchased from Koatech Co., Ltd. (Pyongtaek, Korea). Mice were housed 10 per cage, allowed access to water and food ad libitum, and maintained in constant temperature (23±1° C.) and humidity (55±5%) conditions under a 12 hour light/dark cycle (lights on 07:00 to 19:00 h). All experiments were conducted in accord with the NIH Guide for the Care and Use of Laboratory Animals and with the approval of the Institutional Animal Care and Use Committee of Sungkyunkwan University.
Assessment of the training or test trials of the passive avoidance test was carried out in identical illuminated and non-illuminated compartments (12×10×12 cm) containing 2-mm stainless steel rods spaced 0.5 cm apart. A 50 W lamp positioned 1 meter above both chambers illuminated the apparatuses. Briefly, the mice underwent two separate trials, a training trial and a test trial 24 hours later. For the training trial, mice were initially placed in the clear chamber. When they entered the dark chamber, the door closed and a 3-sec electrical foot shock (0.5 mA) was delivered through the stainless steel rods. One hour before each training trial, mice were given sulfretin (0.25, 0.5, or 1 mg/kg, p.o.). After 30 minutes, memory impairment was induced by administering scopolamine (0.5 mg/kg, i.p.). Twenty-four hours after the training trial, mice were placed in the illuminated chamber for the test trial. The time for the mouse to enter the dark compartment after the door opening was defined as latency for both training and test trials. Latencies were recorded for up to 300 s. To avoid a ceiling effect in unimpaired animals, sulfuretin alone was administered 1 hour before the training trial without scopolamine treatment. The intensity of electrical foot shock was set at 0.25 mA for 3 seconds. This lower intensity shock allowed for a behavioral window through which to detect any enhancing effect of sulfuretin.

## O=C1/C(=C/c2ccc(O)c(O)c2)Oc2cc(O)ccc21 [sulfuretin]
SH-SY5Y cells [1]
  cell viability (MTT reduction): significantly increased
SH-SY5Y cells [2]; sulfuretin 0.1 μg/ml
  MMP (ΔΨm): ≥ 56%
SH-SY5Y cells [2]; sulfuretin 0.5 μg/ml
  MMP (ΔΨm): ≥ 62%
SH-SY5Y cells [2]; sulfuretin 1 μg/ml
  MMP (ΔΨm): ≥ 91%
SH-SY5Y cells [2]; sulfuretin 5 μg/ml
  MMP (ΔΨm): ≥ 98%
phospho-JNK; hydrogen peroxide + sulfuretin 0.1 μg/ml
  phospho-JNK expression: ≤ 261%
phospho-JNK; hydrogen peroxide + sulfuretin 0.5 μg/ml
  phospho-JNK expression: ≤ 204%
phospho-JNK; hydrogen peroxide + sulfuretin 1 μg/ml
  phospho-JNK expression: ≤ 120%
mice; sulfuretin 1 mg/kg, p.o., one hour before training trial, scopolamine 0.5 mg/kg, i.p. (p<0.05)
  scopolamine-induced decrease of step-through latency time (test trial): blocked this decrease
mice; sulfuretin p.o., training trial
  latencies during the training trials: did not change
